Test systems include A498; BT-549; COLO 205; HCT-15; HOP-62; HOP-92; HT-29; K562; KM12; M14; MDA-MB-231; MDA-MB-435; NCI-H23; PC-3; RXF 393; SF-295; SK-MEL-2; SNB-19; SNB-75; TK-10.
Common to all, as to assay: DTP human tumour cell line panel, 48 h

Structures are written as SMILES.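 Briefly, cells in 96-well plates were exposed to five compound concentrations for 48 h, and endpoints were estimated by linear interpolation. At the GI50, growth is halved.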 Activity calls are given as the source filed them. Cut-off read from the data, not from the text of the source: active = GI50 up to about 1.1 µM and inactive = higher. Where only a bound is given, the exact number is not on record here.

What is called GI50 is the concentration at which growth is held to half of that of the control. Consider `O=C(O)COc1cccc2ccccc(=O)c12`, for which the GI50 in the experiment with A498 was > 100 µM (inactive); with BT-549 it was > 100 µM (inactive); in the experiment with COLO 205, > 100 µM (inactive); in the experiment with HCT-15, more than 100 µM; with HOP-62, > 100 µM (inactive); in the experiment on HOP-92, > 100 µM (inactive). For the same molecule, the GI50 with HT-29, with K562, in the experiment on KM12, in the experiment on M14, with MDA-MB-231 and with MDA-MB-435 was > 100 µM (inactive) each time. The GI50 in the experiment with NCI-H23, in the experiment on PC-3, in the experiment with RXF 393, in the experiment on SF-295, in the experiment on SK-MEL-2 and in the experiment on SNB-19 was > 100 µM (inactive) throughout. The GI50 in the experiment on SNB-75 was 0.0126 µM (active); with TK-10, > 100 µM (inactive).

In the case of `O=C(C1OC1c1ccc(F)cc1)C12CC3CC(CC(C3)C1)C2` (stereo not given), the GI50 in the experiment on A498 was 28.2 µM (inactive); in the experiment with BT-549 it was 15.6 µM (inactive); in the experiment with COLO 205 it was 16 µM (inactive); with HCT-15 it was 15.5 µM; in the experiment on HOP-62 it was 27 µM (inactive); in the experiment on HOP-92 it was 20.3 µM (inactive). In addition, the GI50 in the experiment on HT-29 was 20.2 µM (inactive); with K562, 17.6 µM (inactive); with KM12, 15.7 µM (inactive); in the experiment with M14, 15.7 µM (inactive); in the experiment on MDA-MB-231 it was 26.5 µM (inactive); in the experiment on MDA-MB-435, 11.9 µM (inactive). Also, the GI50 in the experiment with NCI-H23 is 22.1 µM (inactive); with PC-3, 30.7 µM (inactive); with RXF 393, 17.7 µM (inactive); in the experiment on SF-295 it was 22.6 µM (inactive); in the experiment with SK-MEL-2 it was 12.9 µM (inactive); in the experiment with SNB-19, 33.4 µM (inactive). In addition, the GI50 is 31 µM (inactive) in the experiment with SNB-75 and 35.2 µM (inactive) in the experiment with TK-10.

For the molecule `COC(=O)c1ccccc1Nc1nc(-c2cccs2)nc2cc(OC)c(OC)cc12`, the GI50 in the experiment with A498 is > 100 µM (inactive); in the experiment with BT-549 it was > 100 µM (inactive); in the experiment on COLO 205, 45.4 µM (inactive); in the experiment with HCT-15 it was 90.2 µM; in the experiment on HOP-62, 18.3 µM (inactive); in the experiment on HOP-92 it was 44.5 µM (inactive). Also, the GI50 was > 100 µM (inactive) in the experiment on HT-29; > 100 µM (inactive) with K562; 71.8 µM (inactive) with KM12; > 100 µM (inactive) in the experiment on M14; 28.9 µM (inactive) in the experiment on MDA-MB-231; > 100 µM (inactive) in the experiment with MDA-MB-435. In addition, the GI50 is 17.4 µM (inactive) in the experiment on NCI-H23; 52.2 µM (inactive) in the experiment with PC-3; 68.1 µM (inactive) with RXF 393; 29.2 µM (inactive) in the experiment with SF-295; 64.7 µM (inactive) in the experiment with SK-MEL-2; 33.1 µM (inactive) in the experiment on SNB-19. In addition, the figures for the GI50 with SNB-75 and with TK-10 were 75.3 µM (inactive) and 28.3 µM (inactive), respectively.

As to `Cn1c(=O)[nH]c2nccnc2c1=O`, the GI50 was > 10 µM (inactive) in the experiment with A498; > 10 µM (inactive) in the experiment on BT-549; > 10 µM (inactive) in the experiment with COLO 205; more than 10 µM with HCT-15; > 10 µM (inactive) in the experiment with HOP-62; > 10 µM (inactive) in the experiment on HOP-92. Also, the GI50 with HT-29, in the experiment with K562, in the experiment on KM12, with M14, with MDA-MB-231 and in the experiment on MDA-MB-435 was > 10 µM (inactive) throughout. The GI50 in the experiment on NCI-H23, with PC-3, in the experiment with RXF 393, with SF-295, with SK-MEL-2 and with SNB-19 was > 10 µM (inactive) in each case. In addition, the GI50 with SNB-75 and in the experiment with TK-10 was > 10 µM (inactive) throughout.

Turning to `O=c1[nH]c2cc3cccnc3c(Cl)c2nc1C(F)(F)F`, the GI50 with A498 was 19.2 µM (inactive); with BT-549 it was 38.9 µM (inactive); with COLO 205, 36.4 µM (inactive); in the experiment on HCT-15, 44.5 µM; in the experiment with HOP-62, 29.3 µM (inactive); in the experiment with HOP-92 it was 7.16 µM (inactive). The GI50 in the experiment with HT-29 is 51.3 µM (inactive); with K562, 29.7 µM (inactive); with KM12, 21 µM (inactive); with M14, 28.8 µM (inactive); in the experiment with MDA-MB-231 it was 30.3 µM (inactive); in the experiment on MDA-MB-435, 33.7 µM (inactive). Further, the GI50 with NCI-H23 was 25 µM (inactive); in the experiment on PC-3, 52 µM (inactive); with RXF 393 it was 46.7 µM (inactive); with SF-295, 41 µM (inactive); with SK-MEL-2 it was 48.2 µM (inactive); in the experiment on SNB-19, 54.7 µM (inactive). The results for the GI50 in the experiment on SNB-75 and in the experiment with TK-10 were 27.5 µM (inactive) and 68.9 µM (inactive), respectively.

As for `COc1ccc(/C=C2\CCC(Cc3ccccc3)(CN(C)C)C2=O)cc1` (stereo not given), the GI50 in the experiment on A498 was 58.6 µM (inactive); in the experiment on BT-549, 68.5 µM (inactive); in the experiment on COLO 205 it was 37.8 µM (inactive); with HCT-15, 26.7 µM; in the experiment with HOP-62, > 100 µM (inactive); in the experiment on HOP-92 it was 53.3 µM (inactive). Also, the GI50 with HT-29 is 32.9 µM (inactive); in the experiment on K562 it was 26.4 µM (inactive); in the experiment on KM12, 41.1 µM (inactive); in the experiment on M14 it was 26.7 µM (inactive); in the experiment with MDA-MB-231, 98.9 µM (inactive); with MDA-MB-435 it was 32.1 µM (inactive). For the same molecule, the GI50 in the experiment on NCI-H23 was 44 µM (inactive); with PC-3 it was 83.9 µM (inactive); in the experiment on RXF 393, 35.1 µM (inactive); in the experiment on SF-295, > 83.2 µM (inactive); in the experiment on SK-MEL-2 it was 60.4 µM (inactive); with SNB-19, 51.4 µM (inactive). The GI50 is 94.2 µM (inactive) in the experiment on SNB-75 and > 100 µM (inactive) in the experiment with TK-10.

Consider `CC1OC(O)C(O)C(O)C1O` (stereo not given), for which the GI50 is > 100 µM (inactive) with A498; > 100 µM (inactive) in the experiment on BT-549; > 100 µM (inactive) with COLO 205; more than 100 µM with HCT-15; > 100 µM (inactive) in the experiment on HOP-62; > 100 µM (inactive) with HOP-92. Further, the GI50 in the experiment on HT-29, in the experiment on K562, in the experiment with KM12, in the experiment on M14, in the experiment on MDA-MB-231 and with MDA-MB-435 was > 100 µM (inactive) throughout. Moreover, the GI50 in the experiment with NCI-H23, in the experiment with PC-3, in the experiment with RXF 393, in the experiment with SF-295, with SK-MEL-2 and in the experiment on SNB-19 was > 100 µM (inactive) each time. The GI50 in the experiment on SNB-75 and in the experiment with TK-10 was > 100 µM (inactive) throughout.

Turning to `CCOP(=O)(OCC)/C(C#N)=C/c1cccn1CC(C)C`, the GI50 in the experiment on A498 is > 100 µM (inactive); in the experiment on BT-549, > 100 µM (inactive); with COLO 205 it was > 100 µM (inactive); in the experiment on HCT-15, more than 100 µM; in the experiment with HOP-62, > 100 µM (inactive); in the experiment with HOP-92, > 100 µM (inactive). Also, the GI50 was > 100 µM (inactive) with HT-29; 39.9 µM (inactive) in the experiment with K562; 89.9 µM (inactive) with KM12; > 100 µM (inactive) with M14; 57.3 µM (inactive) in the experiment on MDA-MB-231; > 100 µM (inactive) with MDA-MB-435. For the same molecule, the GI50 with NCI-H23 is > 100 µM (inactive); in the experiment with PC-3, 93.3 µM (inactive); in the experiment with RXF 393, > 100 µM (inactive); in the experiment with SF-295, > 100 µM (inactive); in the experiment on SK-MEL-2, > 100 µM (inactive); in the experiment with SNB-19 it was > 100 µM (inactive). Moreover, the GI50 in the experiment with SNB-75 and with TK-10 was > 100 µM (inactive) each time.

In the case of `COc1ccc(-n2c(Cn3nnc(-c4cccnc4)n3)nn(C3OC(COC(=O)c4ccccc4)C(OC(=O)c4ccccc4)C3OC(=O)c3ccccc3)c2=S)cc1` (stereo not given), the GI50 with A498 was > 100 µM (inactive); with BT-549, > 100 µM (inactive); with COLO 205 it was > 100 µM (inactive); in the experiment on HCT-15, more than 100 µM; in the experiment on HOP-62, > 100 µM (inactive); in the experiment on HOP-92, > 100 µM (inactive). Further, the GI50 in the experiment with HT-29 is 50.9 µM (inactive); in the experiment with K562 it was > 100 µM (inactive); in the experiment with KM12, > 100 µM (inactive); with M14, > 100 µM (inactive); in the experiment on MDA-MB-231, 49 µM (inactive); with MDA-MB-435, > 100 µM (inactive). The GI50 is > 100 µM (inactive) with NCI-H23; > 100 µM (inactive) with PC-3; > 100 µM (inactive) in the experiment with RXF 393; > 100 µM (inactive) with SF-295; > 100 µM (inactive) in the experiment on SK-MEL-2; 74 µM (inactive) in the experiment with SNB-19. The GI50 with SNB-75 and in the experiment with TK-10 was > 100 µM (inactive) throughout.

For the molecule `CCOC(=O)Nc1ccc2c(c1)N(C(=O)CCN(CC)CC)c1ccccc1S2` [ETHACIZINE], the GI50 is 23.4 µM (inactive) with A498; 28.1 µM (inactive) with BT-549; 20.5 µM (inactive) in the experiment with COLO 205; 30.4 µM in the experiment with HCT-15; 33.9 µM (inactive) in the experiment with HOP-62; 18.9 µM (inactive) in the experiment on HOP-92. The GI50 in the experiment on HT-29 was 17.3 µM (inactive); in the experiment on K562, 25.8 µM (inactive); in the experiment on KM12, 15.5 µM (inactive); in the experiment with M14, 22.9 µM (inactive); with MDA-MB-231 it was 26.1 µM (inactive); with MDA-MB-435 it was 29 µM (inactive). For the same molecule, the GI50 was 31.8 µM (inactive) in the experiment with NCI-H23; 31.4 µM (inactive) in the experiment on PC-3; 21.6 µM (inactive) in the experiment on RXF 393; 22.1 µM (inactive) in the experiment with SF-295; 22 µM (inactive) in the experiment with SK-MEL-2; 47 µM (inactive) in the experiment on SNB-19. Besides, the GI50 with SNB-75 is 2.09 µM (inactive); with TK-10, 32.9 µM (inactive).

Source of the values: ChEMBL document CHEMBL1201862, “PubChem BioAssay data set” (2004).
